Assay results as given in patent publication US20210070748A1, “INHIBITORS OF BRUTONS TYROSINE KINASE” (Pharmacyclics LLC, priority 2015, published 2021).
Like-named read-outs stand apart in the source and are kept apart here.

Key:
BTK-WT = biological target: T1, BTK-WT (Homo sapiens, UniProt Q06187); experiment: Btk in vitro inhibitory activity (one of Method A TR-FRET, Method B electrophoretic mobility shift, Method C radiometric filter binding); format: biochemical; conditions: read-out: BTK-WT (IC50)
T1 construct: purified from insect cells as a full-length construct containing an N-terminal 6X-His tag; His6 (N); made in house; host or cells: insect cells (baculovirus Sf21 in Method B)

JAK3 = biological target: T2, JAK3 (Homo sapiens, UniProt P52333); experiment: Inhibition of a panel of kinases, in vitro HotSpot kinase assay: JAK3; format: biochemical; conditions: 1 μM ATP, read-out: JAK3 (IC50)
T2 sequence (P52333 1-1124): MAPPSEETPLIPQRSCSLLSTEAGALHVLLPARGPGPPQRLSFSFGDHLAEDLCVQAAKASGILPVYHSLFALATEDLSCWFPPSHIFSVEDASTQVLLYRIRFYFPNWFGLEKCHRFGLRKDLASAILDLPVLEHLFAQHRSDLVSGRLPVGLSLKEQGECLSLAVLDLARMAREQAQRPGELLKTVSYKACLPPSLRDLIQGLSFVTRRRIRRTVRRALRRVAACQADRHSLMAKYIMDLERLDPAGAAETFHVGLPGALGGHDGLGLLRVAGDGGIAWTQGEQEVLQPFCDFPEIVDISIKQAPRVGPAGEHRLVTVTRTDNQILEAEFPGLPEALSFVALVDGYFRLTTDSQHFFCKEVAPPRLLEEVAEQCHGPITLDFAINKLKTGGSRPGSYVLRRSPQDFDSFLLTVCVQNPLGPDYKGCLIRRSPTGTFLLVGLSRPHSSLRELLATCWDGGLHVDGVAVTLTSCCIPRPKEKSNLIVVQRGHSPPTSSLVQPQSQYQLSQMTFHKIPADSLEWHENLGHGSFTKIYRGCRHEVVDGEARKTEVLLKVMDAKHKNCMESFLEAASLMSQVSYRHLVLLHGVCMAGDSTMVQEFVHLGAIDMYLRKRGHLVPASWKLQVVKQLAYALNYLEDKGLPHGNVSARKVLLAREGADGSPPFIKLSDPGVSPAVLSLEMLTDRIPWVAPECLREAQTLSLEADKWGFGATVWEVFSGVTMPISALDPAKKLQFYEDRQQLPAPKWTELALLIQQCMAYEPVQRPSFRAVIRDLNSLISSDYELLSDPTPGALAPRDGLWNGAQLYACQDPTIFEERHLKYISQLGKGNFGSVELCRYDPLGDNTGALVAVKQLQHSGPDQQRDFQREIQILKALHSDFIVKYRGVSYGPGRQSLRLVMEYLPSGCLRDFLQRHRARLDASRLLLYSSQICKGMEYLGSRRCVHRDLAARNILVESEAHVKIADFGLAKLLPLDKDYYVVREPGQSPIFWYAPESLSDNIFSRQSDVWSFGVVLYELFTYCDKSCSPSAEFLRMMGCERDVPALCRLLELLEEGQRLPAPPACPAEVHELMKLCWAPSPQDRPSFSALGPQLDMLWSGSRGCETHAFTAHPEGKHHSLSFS

T1 sequence (Q06187 whole entry): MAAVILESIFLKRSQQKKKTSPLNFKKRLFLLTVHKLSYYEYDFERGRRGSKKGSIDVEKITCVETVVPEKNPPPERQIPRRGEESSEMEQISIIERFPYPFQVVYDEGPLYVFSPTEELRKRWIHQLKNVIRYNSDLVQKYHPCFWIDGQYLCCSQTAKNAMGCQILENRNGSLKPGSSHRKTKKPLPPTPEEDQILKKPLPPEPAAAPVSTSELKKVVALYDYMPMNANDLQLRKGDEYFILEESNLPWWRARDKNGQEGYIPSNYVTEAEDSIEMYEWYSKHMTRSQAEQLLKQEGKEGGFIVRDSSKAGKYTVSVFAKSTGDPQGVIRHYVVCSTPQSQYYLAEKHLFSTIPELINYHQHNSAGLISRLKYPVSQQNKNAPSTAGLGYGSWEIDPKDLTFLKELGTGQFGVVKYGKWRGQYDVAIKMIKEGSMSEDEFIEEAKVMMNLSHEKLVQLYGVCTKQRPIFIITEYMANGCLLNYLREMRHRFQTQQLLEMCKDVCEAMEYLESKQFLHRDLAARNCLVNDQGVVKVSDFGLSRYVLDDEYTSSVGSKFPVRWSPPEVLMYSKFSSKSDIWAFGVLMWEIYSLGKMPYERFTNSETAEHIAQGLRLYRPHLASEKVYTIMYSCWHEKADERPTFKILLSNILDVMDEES

| SMILES | IC50 (BTK-WT; Table 10, Formula A-I) [nM] | IC50 (JAK3; Table 10, Formula A-I) [nM] | IC50 (BTK-WT; Table 11, Formula B-I) [nM] | IC50 (JAK3; Table 11, Formula B-I) [nM] |
| --- | --- | --- | --- | --- |
| Cc1cc(Nc2nc(N3CCC[C@@H](NC(=O)c4ccc(N(C)C)cc4)[C@H]3CO)cnc2C(N)=O)sn1 (stereo in doubt) [Example A-68, 5-[(2S,3R)-3-[4-(dimethylamino)benzamido]-2-(hydroxymethyl)piperidin-1-yl]-3-[(3-methyl-1,2-thiazol-5-yl)amino]pyrazine-2-carboxamide] | 100 to 1000 | > 10000 |  |  |
| Cc1cccc(C(=O)N[C@@H]2CCCN(c3cnc(C(N)=O)c(Nc4ccc(C5CCN(C6CCCC6)CC5)cc4)n3)C2)c1 [Example A-8, 3-{[4-(1-cyclopentylpiperidin-4-yl)phenyl]amino}-5-[(3R)-3-(3-methylbenzamido)piperidin-1-yl]pyrazine-2-carboxamide] | ≤ 100 | 100 to 1000 |  |  |
| Cc1cc(Nc2nc(N3CCC[C@@H](NC(=O)c4ccc(C(C)(C)C)cc4)C3)cnc2C(N)=O)sn1 [Example A-37, 5-[(3R)-3-(4-tert-butylbenzamido)piperidin-1-yl]-3-[(3-methyl-1,2-thiazol-5-yl)amino]pyrazine-2-carboxamide] | ≤ 100 | > 10000 |  |  |
| CCn1cc2cc(C(=O)N[C@@H]3CCCN(c4cnc(C(N)=O)c(Nc5cc(C)ns5)n4)C3)ccc2n1 [Example A-38, N-[(3R)-1-{5-carbamoyl-6-[(3-methyl-1,2-thiazol-5-yl)amino]pyrazin-2-yl}piperidin-3-yl]-2-ethyl-2H-indazole-5-carboxamide] | ≤ 100 | 1000 to 10000 |  |  |
| Cc1cc(Nc2nc(N3CCC[C@@H](NC(=O)c4ccc(C5CC5)cc4F)C3)cnc2C(N)=O)sn1 [Example A-39, 5-[(3R)-3-(4-cyclopropyl-2-fluorobenzamido)piperidin-1-yl]-3-[(3-methyl-1,2-thiazol-5-yl)amino]pyrazine-2-carboxamide] | ≤ 100 | > 10000 |  |  |
| Cc1cc(Nc2nc(N3CCC[C@@H](N(C)C(=O)c4ccc(C(C)C)cc4)C3)cnc2C(N)=O)sn1 [Example A-40, 3-[(3-methyl-1,2-thiazol-5-yl)amino]-5-[(3R)-3-[N-methyl4-(propan-2-yl)benzamido]piperidin-1-yl]pyrazine-2-carboxamide] | ≤ 100 | > 10000 |  |  |
| Cc1cc(Nc2nc(N3CCC[C@@H](NC(=O)c4ccc(N(C)C)cc4)[C@H]3C)cnc2C(N)=O)sn1 [Example A-55, 5-[(2R,3R)-3-[4-(dimethylamino)benzamido]-2-methylpiperidin-1-yl]-3-[(3-methyl-1,2-thiazol-5-yl)amino]pyrazine-2-carboxamide] | ≤ 100 | 100 to 1000 |  |  |
| Cc1cc(Nc2nc(N3CCC[C@@H](NC(=O)c4ccc(C(C)C)cc4)[C@H]3C)cnc2C(N)=O)sn1 [Example A-56, 3-[(3-methyl-1,2-thiazol-5-yl)amino]-5-[(2R,3R)-2-methyl-3-[4-(propan-2-yl)benzamido]piperidin-1-yl]pyrazine-2-carboxamide] | ≤ 100 | 1000 to 10000 |  |  |
| Cc1cc(Nc2cc(N3CCC[C@@H](NC(=O)c4ccc(C(C)C)cc4)C3)cnc2C(N)=O)sn1 [Example A-63, 3-[(3-methyl-1,2-thiazol-5-yl)amino]-5-[(3R)-3-[4-(propan-2-yl)benzamido]piperidin-1-yl]pyridine-2-carboxamide] | ≤ 100 | > 10000 |  |  |
| CC(C)c1ccc(C(=O)N[C@@H]2CCCN(c3cnc(C(N)=O)c(Nc4ccccc4)n3)C2)cc1 [Example A-65, 3-(phenylamino)-5-[(3R)-3-[4-(propan-2-yl)benzamido]piperidin-1-yl]pyrazine-2-carboxamide] | 1000 to 10000 | > 10000 |  |  |
| Cc1cc(Nc2c(C(N)=O)ncc(N3CCC[C@@H](NC(=O)c4ccc(N(C)C)cc4)C3)c2C)sn1 [Example A-66, 5-[(3R)-3-[4-(dimethylamino)benzamido]piperidin-1-yl]-4-methyl-3-[(3-methyl-1,2-thiazol-5-yl)amino]pyridine-2-carboxamide] | 1000 to 10000 | > 10000 |  |  |
| Cc1cc(Nc2nc(N3CCC[C@@H](NC(=O)c4ccc(N(C)C)cc4)[C@@H]3CO)cnc2C(N)=O)sn1 [Example A-69, 5-[(2R,3R)-3-[4-(dimethylamino)benzamido]-2-(hydroxymethyl)piperidin-1-yl]-3-[(3-methyl-1,2-thiazol-5-yl)amino]pyrazine-2-carboxamide] | 100 to 1000 | > 10000 |  |  |
| Cc1cc(Nc2nc(N3CCC[C@H](NC(=O)c4ccc(N(C)C)cc4)[C@H]3CO)cnc2C(N)=O)sn1 [Example A-70, 5-[(2S,3S)-3-[4-(dimethylamino)benzamido]-2-(hydroxymethyl)piperidin-1-yl]-3-[(3-methyl-1,2-thiazol-5-yl)amino]pyrazine-2-carboxamide] | 100 to 1000 | > 10000 |  |  |
| CC(C)c1ccc(C(=O)N[C@@H]2CCCN(c3cnc(C(N)=O)c(Nc4ccccn4)n3)C2)cc1 [Example A-71, 5-[(3R)-3-[4-(propan-2-yl)benzamido]piperidin-1-yl]-3-[(pyridin-2-yl)amino]pyrazine-2-carboxamide] | 1000 to 10000 | 1000 to 10000 |  |  |
| CCN1N=CC2C=C(C(=O)N[C@@H]3CCCN(c4cnc(C(N)=O)c(Nc5cc(C)ns5)n4)C3)C=CC21 (stereo partly drawn) [Example A-72, N-[(3R)-1-{5-carbamoyl-6-[(3-methyl-1,2-thiazol-5-yl)amino]pyrazin-2-yl}piperidin-3-yl]-1-ethyl-3a,7a-dihydro-1H-indazole-5-carboxamide] | ≤ 100 | 1000 to 10000 |  |  |
| Cc1cc(Nc2nc(N3CCC[C@@H](NC(=O)c4ccc(C5CC5)c(F)c4)C3)cnc2C(N)=O)sn1 [Example A-73, 5-[(3R)-3-(4-cyclopropyl-3-fluorobenzamido)piperidin-1-yl]-3-[(3-methyl-1,2-thiazol-5-yl)amino]pyrazine-2-carboxamide] | ≤ 100 | 1000 to 10000 |  |  |
| Cc1cc(Nc2nc(N3CCC[C@@H](NC(=O)c4ccc(C5CC5)cc4F)[C@H]3C)cnc2C(N)=O)sn1 [Example A-74, 5-[(2R,3R)-3-(4-cyclopropyl-2-fluorobenzamido)-2-methylpiperidin-1-yl]-3-[(3-methyl-1,2-thiazol-5-yl)amino]pyrazine-2-carboxamide] | ≤ 100 | 1000 to 10000 |  |  |
| Cc1cc(Nc2nc(N3CCCC(CNC(=O)N(C)C)C3)cnc2C(N)=O)sn1 (stereo not drawn) [Example A-78, 5-(3-{[(dimethylcarbamoyl)amino]methyl}piperidin-1-yl)-3-[(3-methyl-1,2-thiazol-5-yl)amino]pyrazine-2-carboxamide] | ≤ 100 | 1000 to 10000 |  |  |
| Cc1cc(Nc2nc(N3CCCC(CNC(=O)c4ccccc4)C3)cnc2C(N)=O)sn1 (stereo not drawn) [Example A-79, 3-[(3-methyl-1,2-thiazol-5-yl)amino]-5-{3-[(phenylformamido)methyl]piperidin-1-yl}pyrazine-2-carboxamide] | ≤ 100 | 1000 to 10000 |  |  |
| Cc1cc(Nc2nc(N3CCCC(CNC(=O)c4ccc(N(C)C)cc4)C3)cnc2C(N)=O)sn1 (stereo not drawn) [Example A-80] | ≤ 100 | 1000 to 10000 |  |  |
| C[C@@H]1[C@H](NC(=O)c2ccc(C3CC3)cc2F)CCCN1c1cnc(C(N)=O)c(Nc2ccc(N3CCN(C)CC3)cc2)n1 [Example A-81, 5-[(2R,3R)-3-(4-cyclopropyl-2-fluorobenzamido)-2-methylpiperidin-1-yl]-3-{[4-(4-methylpiperazin-1-yl)phenyl]amino}pyrazine-2-carboxamide] | ≤ 100 | 1000 to 10000 |  |  |
| CC(C)c1ccc(C(=O)N[C@@H]2CCCN(c3cnc(C(N)=O)c(Nc4ccc(CN(C)C)cc4)n3)C2)cc1 [Example A-83, 3-({4-[(dimethylamino)methyl]phenyl}amino)-5-[(3R)-3-[4-(propan-2-yl)benzamido]piperidin-1-yl]pyrazine-2-carboxamide] | ≤ 100 | 1000 to 10000 |  |  |
| CN(C)c1ccc(C(=O)N[C@H]2CC[C@H](Nc3cnc(C(N)=O)c(Nc4ccc5ncccc5c4)n3)CC2)cc1 [Example B-2] |  |  | 100 to 1000 | > 10000 |
| Cc1cc(Nc2nc(NC3CCC(NC(=O)N(C)C)CC3)cnc2C(N)=O)sn1 (stereo not drawn) [Example B-3, 5-({4-[(dimethylcarbamoyl)amino]cyclohexyl}amino)-3-[(3-methyl-1,2-thiazol-5-yl)amino]pyrazine-2-carboxamide] |  |  | ≤ 100 | < 100 |
